Results: patent US10738056B2 (Aduro BioTech, Inc., priority 2017, dated 2020)

Columns and labels:
[1] = molecular target: Human cGAS amino acids 155-522 (Homo sapiens (Human), UniProt Q8N884); experiment: cGAS biochemical activity assay (ATP remaining, Kinase-Glo Max luminescence); details: human cGAS 155-522, ATP remaining (Kinase-Glo Max); read-out: cGAS IC50
[2] = system: cGAS/STING pathway in THP1 cells; experiment: THP1 cell-based cGAS/STING pathway activity assay (IRF-3-linked luciferase reporter); details: Homo sapiens, THP-1
Excerpt: A cellular assay can be used to assess the compounds of the invention for their ability to inhibit the cGAS/STING pathway. Cells that express a luciferase-based reporter that is linked to IRF-3 activation are used to determine response as a function of compound concentration. Such an assay is described in Vincent et al., Nature Communications 2017, 8(1):750, doi: 10.1038/s41467-017-00833-9.
A cellular assay can be used to assess the compounds of the invention for their ability to inhibit the cGAS/STING pathway. Cells that express a luciferase-based reporter that is linked to IRF-3 activation are used to determine response as a function of compound concentration. Such an assay is described in Vincent et al., Nature Communications 2017, 8(1):750, doi: 10.1038/s41467-017-00833-9. Compounds of the invention were assessed using similar assay methods in a THP1 cell assay to generate IC50 values as provided in the following Table 16. In this table, activity level “A” indicates an IC50 value less than 20 μM, “B” indicates an IC50 value between 20 and 100 μM, and “C” indicates an IC50 value above the upper limit of the assay (100 μM), or where an IC50 value could not be generated from the data.

Chain of Human cGAS amino acids 155-522 (Q8N884 157-522): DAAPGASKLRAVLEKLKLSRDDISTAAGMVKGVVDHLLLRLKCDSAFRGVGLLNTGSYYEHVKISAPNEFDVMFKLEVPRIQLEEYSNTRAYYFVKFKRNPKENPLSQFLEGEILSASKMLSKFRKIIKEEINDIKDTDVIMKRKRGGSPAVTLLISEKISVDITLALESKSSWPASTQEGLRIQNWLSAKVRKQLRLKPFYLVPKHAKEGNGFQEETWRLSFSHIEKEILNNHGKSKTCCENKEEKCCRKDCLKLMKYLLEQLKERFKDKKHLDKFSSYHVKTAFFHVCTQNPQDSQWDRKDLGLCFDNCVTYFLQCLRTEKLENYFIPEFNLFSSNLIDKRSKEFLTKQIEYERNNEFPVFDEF

SMILES | IC50 [1] | IC50 [2]
COC1CCCCC1NC(=O)c1c(C)[nH]c2c(-c3ccccc3)c(C(F)(F)F)nn2c1=O (single isomer, unassigned) [Compound A1089, N-(2-methoxycyclohexyl)-5-methyl-7-oxo-3-phenyl-2-(trifluoromethyl)-4,7-dihydropyrazolo[1,5-a]pyrimidine-6-carboxamide] | < 20 µM | > 100 µM
Cc1[nH]c2c(-c3ccccc3)c(C(F)(F)F)nn2c(=O)c1C(=O)Nc1ccccc1 [Compound A1002, 5-methyl-7-oxo-N,3-diphenyl-2-(trifluoromethyl)-4,7-dihydropyrazolo[1,5-a]pyrimidine-6-carboxamide] | < 20 µM | 20 to 100 µM
Cc1[nH]c2c(-c3ccccc3)c(C(F)(F)F)nn2c(=O)c1C(=O)Nc1ccccc1N [Compound A1006, N-(2-aminophenyl)-5-methyl-7-oxo-3-phenyl-2-(trifluoromethyl)-4,7-dihydropyrazolo[1,5-a]pyrimidine-6-carboxamide] | < 20 µM | > 100 µM
Cc1[nH]c2c(-c3ccccc3)c(C(F)(F)F)nn2c(=O)c1C(=O)NCc1ccccc1 [Compound A1023, N-benzyl-5-methyl-7-oxo-3-phenyl-2-(trifluoromethyl)-4,7-dihydropyrazolo[1,5-a]pyrimidine-6-carboxamide] | 20 to 250 µM | 20 to 100 µM
Cc1[nH]c2c(-c3ccccc3)c(C(F)(F)F)nn2c(=O)c1C(=O)Nc1nccs1 [Compound A1028, 5-methyl-7-oxo-3-phenyl-N-(thiazol-2-yl)-2-(trifluoromethyl)-4,7-dihydropyrazolo[1,5-a]pyrimidine-6-carboxamide] | < 20 µM | 20 to 100 µM
Cc1[nH]c2c(-c3ccccc3)c(C(F)(F)F)nn2c(=O)c1C(=O)Nc1ccn(C)n1 [Compound A1029, 5-methyl-N-(1-methyl-1H-pyrazol-3-yl)-7-oxo-3-phenyl-2-(trifluoromethyl)-4,7-dihydropyrazolo[1,5-a]pyrimidine-6-carboxamide] | < 20 µM | 20 to 100 µM
COc1ccccc1NC(=O)c1c(C)[nH]c2c(-c3ccccc3)c(C(F)(F)F)nn2c1=O [Compound A1031, N-(2-methoxyphenyl)-5-methyl-7-oxo-3-phenyl-2-(trifluoromethyl)-4,7-dihydropyrazolo[1,5-a]pyrimidine-6-carboxamide] | < 20 µM | > 100 µM
COc1cccc(NC(=O)c2c(C)[nH]c3c(-c4ccccc4)c(C(F)(F)F)nn3c2=O)c1 [Compound A1032, N-(3-methoxyphenyl)-5-methyl-7-oxo-3-phenyl-2-(trifluoromethyl)-4,7-dihydropyrazolo[1,5-a]pyrimidine-6-carboxamide] | < 20 µM | < 20 µM
Cc1[nH]c2c(-c3ccccc3)c(C(F)(F)F)nn2c(=O)c1C(=O)Nc1ccccc1Cl [Compound A1033, N-(2-chlorophenyl)-5-methyl-7-oxo-3-phenyl-2-(trifluoromethyl)-4,7-dihydropyrazolo[1,5-a]pyrimidine-6-carboxamide] | 20 to 250 µM | 20 to 100 µM
Cc1[nH]c2c(-c3ccccc3)c(C(F)(F)F)nn2c(=O)c1C(=O)Nc1nc(C(C)C)co1 [Compound A1048, N-(4-isopropyloxazol-2-yl)-5-methyl-7-oxo-3-phenyl-2-(trifluoromethyl)-4,7-dihydropyrazolo[1,5-a]pyrimidine-6-carboxamide] | 20 to 250 µM | 20 to 100 µM
Cc1[nH]c2c(-c3ccccc3)c(C(F)(F)F)nn2c(=O)c1C(=O)Nc1ccccc1S(=O)(=O)C(C)C [Compound A1051, N-(2-(isopropylsulfonyl)phenyl)-5-methyl-7-oxo-3-phenyl-2-(trifluoromethyl)-4,7-dihydropyrazolo[1,5-a]pyrimidine-6-carboxamide] | < 20 µM | 20 to 100 µM
CO[C@@H]1CCCCC1c1nnc(-c2c(C)[nH]c3c(-c4ccccc4)c(C(F)(F)F)nn3c2=O)o1 (stereo partly shown) [D1046 Iso-2] | < 20 µM | –
CO[C@H]1CCCC1c1nnc(-c2c(C)[nH]c3c(-c4ccccc4)c(C(F)(F)F)nn3c2=O)o1 (stereo partly shown) [D1049 Iso-1] | < 20 µM | –

Further lines, results first:

IC50 [1] | IC50 [2] | SMILES
20 to 250 µM | – | COc1ccnc(-c2nnc(-c3c(C)[nH]c4c(-c5ccccc5)c(C(F)(F)F)nn4c3=O)o2)n1 [Compound D1076, 6-(5-(4-methoxypyrimidin-2-yl)-1,3,4-oxadiazol-2-yl)-5-methyl-3-phenyl-2-(trifluoromethyl)pyrazolo[1,5-a]pyrimidin-7(4H)-one]
> 250 µM | – | Cc1[nH]c2c(-c3ccccc3)c(C(F)(F)F)nn2c(=O)c1-c1nnc(-c2cccc(N)c2)o1 [Compound D1079, 6-(5-(3-aminophenyl)-1,3,4-oxadiazol-2-yl)-5-methyl-3-phenyl-2-(trifluoromethyl)pyrazolo[1,5-a]pyrimidin-7(4H)-one]
> 250 µM | – | Cc1[nH]c2c(-c3ccccc3)c(C(F)(F)F)nn2c(=O)c1-c1nnc(C2CCCCC2N)o1 (stereo not shown) [Compound D1080, 6-(5-(2-aminocyclohexyl)-1,3,4-oxadiazol-2-yl)-5-methyl-3-phenyl-2-(trifluoromethyl)pyrazolo[1,5-a]pyrimidin-7(4H)-one]
> 250 µM | – | Cc1[nH]c2c(-c3ccccc3)c(C(F)(F)F)nn2c(=O)c1-c1nnc(-c2ccc(N)cc2)o1 [Compound D1081, 6-(5-(4-aminophenyl)-1,3,4-oxadiazol-2-yl)-5-methyl-3-phenyl-2-(trifluoromethyl)pyrazolo[1,5-a]pyrimidin-7(4H)-one]
20 to 250 µM | – | Cc1[nH]c2c(-c3ccccc3)c(C(F)(F)F)nn2c(=O)c1-c1nnc(-c2ccccc2N)o1 [Compound D1082, 6-(5-(2-aminophenyl)-1,3,4-oxadiazol-2-yl)-5-methyl-3-phenyl-2-(trifluoromethyl)pyrazolo[1,5-a]pyrimidin-7(4H)-one]
20 to 250 µM | – | Cc1[nH]c2c(-c3ccccc3)c(C(F)(F)F)nn2c(=O)c1-c1nnc(N2CCCC(CN)C2)o1 (stereo not shown) [Compound D1083, 6-(5-(3-(aminomethyl)piperidin-1-yl)-1,3,4-oxadiazol-2-yl)-5-methyl-3-phenyl-2-(trifluoromethyl)pyrazolo[1,5-a]pyrimidin-7(4H)-one]
< 20 µM | – | Cc1[nH]c2c(-c3ccccc3)c(C(F)(F)F)nn2c(=O)c1-c1nnc(N2CCCC(N)C2)o1 (stereo not shown) [Compound D1084, 6-(5-(3-aminopiperidin-1-yl)-1,3,4-oxadiazol-2-yl)-5-methyl-3-phenyl-2-(trifluoromethyl)pyrazolo[1,5-a]pyrimidin-7(4H)-one]
20 to 250 µM | – | Cc1[nH]c2c(-c3ccccc3)c(C(F)(F)F)nn2c(=O)c1-c1nnc(N2CCCC(O)C2)o1 (stereo not shown) [Compound D1087, 6-(5-(3-hydroxypiperidin-1-yl)-1,3,4-oxadiazol-2-yl)-5-methyl-3-phenyl-2-(trifluoromethyl)pyrazolo[1,5-a]pyrimidin-7(4H)-one]
< 20 µM | – | Cc1[nH]c2c(-c3ccccc3)c(C#N)nn2c(=O)c1-c1nnc(C2CCCCC2)o1 [Compound D1089, 6-(5-cyclohexyl-1,3,4-oxadiazol-2-yl)-5-methyl-7-oxo-3-phenyl-4,7-dihydropyrazolo[1,5-a]pyrimidine-2-carbonitrile]
< 20 µM | – | COc1cccc2oc(-c3c(C)[nH]c4c(-c5ccccc5)nnn4c3=O)nc12 [Compound E1001, 6-(4-methoxybenzo[d]oxazol-2-yl)-5-methyl-3-phenyl-[1,2,3]triazolo[1,5-a]pyrimidin-7(4H)-one]
